Test results as given in patent publication US20220213055A1, “SUBSTITUTED (PIPERIDIN-1-YL)ARYL ANALOGUES FOR MODULATING AVIL ACTIVITY” (University of Virginia Patent Foundation, priority 2019, published 2022).
Read-outs that look alike come from different tables or passages of the source.

Tests used:
[1] = tested on: Immortalized human astrocytes; experiment: MTT cell viability assay, astrocytes (non-cancer control); format: cell-based; conditions: immortalized human astrocytes, MTT after three days
Method: (§1) Different concentration of compounds were added to the cells. Three days later, a MTT assay (Sigma) was performed to monitor cell viability.
(§2) In this example, samples of glioblastoma cells (U87) and astrocyte cells (non-cancer control) were exposed various disclosed compounds to determine the effectiveness of the compounds for inhibiting cell growth.

[2] = tested on: Glioblastoma cell line U87 cells; experiment: MTT cell viability assay, glioblastoma cells; format: cell-based; conditions: U87 glioblastoma cells, MTT after three days
Method: as §1, §2

| Structure (SMILES) | IC50 ([1]; Homo sapiens, Astrocyte, 72 h) | IC50 ([2]; Homo sapiens, U-87 MG, 72 h) | IC50 ([1]; read-out: IC50 (astrocyte)) | IC50 [2] |
| --- | --- | --- | --- | --- |
| CS(=O)(=O)OCC1(CCCc2ccccc2)CCCN(c2ccnc(N)n2)C1 (stereo not shown) [PLH1224] | > 80 µM | ~50 µM |  |  |
| COc1c(Cl)ncnc1N1CCCC(CO)(CCCc2ccccc2)C1 (stereo not shown) [PLH1302, (1-(6-Chloro-5-methoxypyrimidin-4-yl)-3-(3-phenylpropyl)piperidin-3-yl)methanol] | ~20 µM | ~2.5 µM | 10 µM | 2.3 µM |
| Nc1nccc(N2CCCC(C(=O)NCc3ccccc3)C2)n1 (stereo not shown) [PLH1290, 1-(2-Aminopyrimidin-4-yl)-N-benzylpiperidine-3-carboxamide] | > 80 µM | > 80 µM |  |  |
| O=C(c1sc2cc(F)ccc2c1Cl)N1CCCC(CO)(CCCc2ccccc2)C1 (stereo not shown) [PLH1254] | 49 µM | 16 µM |  |  |
| COc1nc(OC)nc(N2CCC(CO)(CCCc3ccccc3)CC2)n1 [JDDUVA52, (1-(4,6-Dimethoxy-1,3,5-triazin-2-yl)-4-(3-phenylpropyl)piperidin-4-yl)methanol] | > 80 µM | 41 µM |  |  |
| COC(=O)C1(CCCc2ccccc2)CCCN(c2ccnc(N)n2)C1 (stereo not shown) [JDDUVA20] | 70 µM | ~10.9 µM |  |  |
| Nc1nccc(N2CCC(c3ccccc3)CC2)n1 [JDDUVA63, 4-(4-Phenylpiperidin-1-yl)pyrimidin-2-amine] | > 80 µM | 16 µM |  |  |
| CCOC(=O)C1(CCCc2ccccc2)CCN(C(=O)OC(C)(C)C)CC1 [JDDUVA76] | ~60 µM | ~30 µM |  |  |
| COC(=O)C1CCCN(c2ccnc(N)n2)C1 (stereo not shown) [JDDUVA16] |  | > 80 µM |  |  |
| Nc1nccc(N2CCCC(CCCc3ccccc3)(COCc3ccccc3)C2)n1 (stereo not shown) [PLH1253, 4-(3-((Benzyloxy)methyl)-3-(3-phenylpropyl)piperidin-1-yl)pyrimidin-2-amine] |  | ~1.7 µM |  | ~3.4 µM |
| Nc1nccc(N2CCc3ccccc3C2)n1 [JDDUVA71, 4-(3,4-Dihydroisoquinolin-2(1H)-yl)pyrimidin-2-amine] | > 80 µM | > 80 µM |  |  |
| CCOC(=O)C1(CCCc2ccccc2)CCCN(C(=O)OC(C)(C)C)C1 (stereo not shown) [PLH1225] | > 80 µM | ~15 µM |  |  |
| Cc1nc(N(C)C)nc(N2CCCC(CO)(CCCc3ccccc3)C2)c1C (stereo not shown) [PLH1276, (1-(2-(Dimethylamino)-5,6-dimethylpyrimidin-4-yl)-3-(3-phenylpropyl)piperidin-3-yl)methanol] | > 80 µM | 19 µM |  |  |
| Nc1nccc(N2CCCCC2)n1 [JDDUVA12, 4-(Piperidin-1-yl)pyrimidin-2-amine] | > 80 µM | > 80 µM |  |  |
| Cc1c(Cl)ncnc1N1CCCC(CO)(CCCc2ccccc2)C1 (stereo not shown) [PLH1279, (1-(6-Chloro-5-methylpyrimidin-4-yl)-3-(3-phenylpropyl)piperidin-3-yl)methanol] | > 80 µM | 8 µM |  |  |
| Nc1nccc(N2CCCC(COCc3ccccc3)C2)n1 (stereo not shown) [PLH2027, 4-(3-((Benzyloxy)methyl)piperidin-1-yl)pyrimidin-2-amine] | ~80 µM | ~50 µM |  |  |
| OCC1(CCCc2ccccc2)CCN(c2cc(C(F)(F)F)ncn2)CC1 [JDDUVA47, (4-(3-Phenylpropyl)-1-(6-(trifluoromethyl)pyrimidin-4-yl)piperidin-4-yl)methanol] | > 80 µM | 13 µM |  |  |
| CCc1ncnc(N2CCCC(CO)(CCCc3ccccc3)C2)c1F (stereo not shown) [PLH2002, (1-(6-Ethyl-5-fluoropyrimidin-4-yl)-3-(3-phenylpropyl)piperidin-3-yl)methanol] | 1.1 µM | 1.5 µM |  |  |
| CCc1ncnc(N2CCC(CO)(CCCc3ccccc3)CC2)c1F [JDDUVA68, (1-(6-Ethyl-5-fluoropyrimidin-4-yl)-4-(3-phenylpropyl)piperidin-4-yl)methanol] | 12.5 µM | 3.6 µM |  |  |
| Cc1nccnc1N1CCC(CO)(CCCc2ccccc2)CC1 [JDDUVA53, (1-(3-Methylpyrazin-2-yl)-4-(3-phenylpropyl)piperidin-4-yl)methanol] | > 80 µM | 30 µM |  |  |
| COc1c(Cl)ncnc1N1CCC(CO)(CCCc2ccccc2)CC1 [JDDUVA67, (1-(6-Chloro-5-methoxypyrimidin-4-yl)-4-(3-phenylpropyl)piperidin-4-yl)methanol] | ~6 µM | ~2.5 µM |  |  |
| OCC1(CCCc2ccccc2)CCN(c2cc(Cl)ncn2)CC1 [JDDUVA60, (1-(6-Chloropyrimidin-4-yl)-4-(3-phenylpropyl)piperidin-4-yl)methanol] | > 80 µM |  |  |  |
| CC(C)(C)OC(=O)N1CCCC(CO)(CCCc2ccccc2)C1 (stereo not shown) [PLH1196] | > 80 µM | ~30 µM |  |  |

| Structure (SMILES) | IC50 ([1]; Homo sapiens, Astrocyte, 72 h) | IC50 ([2]; Homo sapiens, U-87 MG, 72 h) | IC50 ([1]; read-out: IC50 (astrocyte)) | IC50 [2] |
| --- | --- | --- | --- | --- |
| Nc1nccc(N2CCCC(CO)(CCc3ccccc3)C2)n1 (stereo not shown) [PLH1304, (1-(2-Aminopyrimidin-4-yl)-3-phenethylpiperidin-3-yl)methanol] | ~80 µM | 3.83 µM |  |  |
| O=C(O)C1(CCCc2ccccc2)CCCNC1 (stereo not shown) [PLH1197] | > 80 µM | ~80 µM |  |  |
| Nc1ncnc(N2CCC(CO)(CCCc3ccccc3)CC2)c1N [JDDUVA51, (1-(5,6-Diaminopyrimidin-4-yl)-4-(3-phenylpropyl)piperidin-4-yl)methanol] | > 80 µM | 12 µM |  |  |
| Cc1ncnc(N2CCC(CO)(CCCc3ccccc3)CC2)c1C [JDDUVA96, (1-(5,6-Dimethylpyrimidin-4-yl)-4-(3-phenylpropyl)piperidin-4-yl)methanol] | ~8 µM | ~4 µM |  |  |
| Nc1nccc(N2CCCC(C(=O)NCCc3ccccc3)C2)n1 (stereo not shown) [PLH1285, 1-(2-Aminopyrimidin-4-yl)-N-phenethylpiperidine-3-carboxamide] | > 80 µM | 17 µM |  |  |
| Nc1nc(N)nc(N2CCCC(CO)(CCCc3ccccc3)C2)n1 (stereo not shown) [PLH1258, (1-(4,6-Diamino-1,3,5-triazin-2-yl)-3-(3-phenylpropyl)piperidin-3-yl)methanol] | > 80 µM | 3.6 µM |  |  |
| Nc1nccc(N2CCC[C@H](COCc3ccccc3)C2)n1 [PLH2032, (S)-4-(3-((Benzyloxy)methyl)piperidin-1-yl)pyrimidin-2-amine] | ~40 µM | 4.3 µM |  |  |
| Nc1nccc(N2CCCC(CO)(CCCc3ccccc3)C2)n1 (stereo not shown) [JDDUVA38] |  |  | 56 µM | ~11 µM |
| CC(C)(C)OC(=O)N1CCCC(C(=O)NCc2ccccc2)C1 (stereo not shown) [PLH1273] | > 80 µM | > 80 µM |  |  |
| CC1CCN(c2ccnc(N)n2)CC1 [JDDUVA59, 4-(4-Methylpiperidin-1-yl)pyrimidin-2-amine] | > 80 µM | 72 µM |  |  |
| Nc1nccc(N2CCCC(CO)(CCCc3ccccc3)C2)n1 (stereo not shown) [PLH1215, (1-(2-Aminopyrimidin-4-yl)-3-(3-phenylpropyl)piperidin-3-yl)methanol] | > 80 µM | ~11.7 µM |  |  |
| Nc1nccc(N2CCCC(CO)(CCCc3ccccc3)C2)n1 (stereo not shown) [JDDUVA28] |  |  | > 80 µM | ~12.2 µM |
| Nc1nccc(N2CCC[C@@H](COCc3ccccc3)C2)n1 [PLH2040, (R)-4-(3-((Benzyloxy)methyl)piperidin-1-yl)pyrimidin-2-amine] | > 80 µM | 2.8 µM |  |  |
| OCC1(CCCc2ccccc2)CCCN(c2ccncn2)C1 (stereo not shown) [PLH2062, (3-(3-Phenylpropyl)-1-(pyrimidin-4-VI)piperidin-3-yl)methanol] | > 80 µM | ~30 µM |  |  |
| COc1nc(OC)nc(N2CCCC(CO)(CCCc3ccccc3)C2)n1 (stereo not shown) [PLH1230, (1-(4,6-Dimethoxy-1,3,5-triazin-2-yl)-3-(3-phenylpropyl)piperidin-3-yl)methanol] | > 80 µM | 63.6 µM |  |  |
| Nc1nccc(N2CCCCC2CO)n1 (stereo not shown) [JDDUVA61, (1-(2-Aminopyrimidin-4-yl)piperidin-2-yl)methanol] | > 80 µM | > 80 µM |  |  |
| O=Cc1c(Cl)ncnc1N1CCCC(CO)(CCCc2ccccc2)C1 (stereo not shown) [PLH1293] | 18 µM | 8 µM |  |  |
| Cc1c(-c2ccccc2)ncnc1N1CCCC(CO)(CCCc2ccccc2)C1 (stereo not shown) [PLH2063, (1-(5-methyl-6-phenylpyrimidin-4-yl)-3-(3-phenylpropyl)piperidin-3-yl)methanol] | ~80 µM | ~80 µM |  |  |
| Nc1cncc(N2CCC(CO)(CCCc3ccccc3)CC2)n1 [JDDUVA55] | > 80 µM | 16 µM |  |  |
| Nc1nccc(N2CCCC(CO)C2)n1 (stereo not shown) [JDDUVA18, (1-(2-Aminopyrimidin-4-yl)piperidin-3-yl)methanol] |  | > 80 µM |  |  |
| Nc1ncnc(N2CCCC(CO)(CCCc3ccccc3)C2)n1 (stereo not shown) [PLH1239, (1-(4-Amino-1,3,5-triazin-2-yl)-3-(3-phenylpropyl)piperidin-3-yl)methanol] |  | > 80 µM |  |  |
| Cc1nc(N)nc(N2CCC(CO)(CCCc3ccccc3)CC2)c1C [JDDUVA43, (1-(2-Amino-5,6-dimethylpyrimidin-4-yl)-4-(3-phenylpropyl)piperidin-4-yl)methanol] | 47 µM |  | 60 µM |  |
